This note sets out measurements from PubChem BioAssay (NCI).

Test systems include SF-539 CNS; EKVX NSCLC; NCI-H522 lung; CCRF-CEM leukemia; CAKI-1 renal; UACC-257 melanoma; SK-MEL-28 melanoma; IGROV1 ovarian; MOLT-4 leukemia; K-562 leukemia.
Holding throughout (experiment): DTP human tumour cell line panel, 48 h

“And” between values parts separate entries of the source, which are not always exact repeats. Identical values can stand only once.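 Method: 48-hour compound exposure of cells in 96-well plates, five concentrations, linear interpolation of endpoints. Here, GI50 denotes the concentration required for 50% inhibition of growth. Definition used: TGI = concentration required for complete inhibition of growth.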

With `O=C1/C=C/[C@@H](O)[C@@H]2C[C@@H](O)C[C@H]2/C=C/CCC[C@H](CCc2ccc3ncccc3c2)O1`, the GI50 in the assay with SF-539 CNS was 0.495 µM; in the assay on EKVX NSCLC, 0.289 µM; in the assay with NCI-H522 lung, 0.212 µM; in the assay on CCRF-CEM leukemia, 0.306 µM; in the assay with CAKI-1 renal, 0.282 µM; with UACC-257 melanoma, 0.13 µM. Moreover, the GI50 with SK-MEL-28 melanoma was 0.0637 µM; in the assay with IGROV1 ovarian it was 0.394 µM; with MOLT-4 leukemia, 0.289 µM; in the assay with K-562 leukemia it was 0.386 µM. Moreover, the total growth inhibition concentration (TGI) with SF-539 CNS is greater than 100 µM; with EKVX NSCLC, greater than 64.9 µM; with NCI-H522 lung, 0.523 µM; in the assay on CCRF-CEM leukemia it was 8.4 µM; in the assay on UACC-257 melanoma, 5.95 µM; in the assay with SK-MEL-28 melanoma, 0.837 µM. Moreover, the TGI with IGROV1 ovarian was greater than 34 µM; with MOLT-4 leukemia, 1.54 µM; in the assay with K-562 leukemia it was greater than 100 µM.

Take `Cc1cc(-c2nnc(/C=C/c3ccc4c(c3)OCO4)o2)n[nH]1`: the GI50 is 12.5 µM with SF-539 CNS; 17.9 µM in the assay with EKVX NSCLC; 8.15 µM with NCI-H522 lung; 2.05 µM in the assay on CCRF-CEM leukemia; 3.89 µM in the assay with CAKI-1 renal; 23 µM in the assay on UACC-257 melanoma. Also, the GI50 is 24.1 µM with SK-MEL-28 melanoma, 9.57 µM in the assay with IGROV1 ovarian, 3.39 µM in the assay with MOLT-4 leukemia and 1.83 µM in the assay with K-562 leukemia. For the same compound, the concentration for total growth inhibition (TGI) was greater than 50 µM in the assay on SF-539 CNS; greater than 50 µM in the assay with EKVX NSCLC; 26.7 µM in the assay on NCI-H522 lung; 19.1 µM in the assay on CCRF-CEM leukemia; greater than 50 µM in the assay on CAKI-1 renal; greater than 50 µM in the assay on UACC-257 melanoma. For the same compound, the concentration for total growth inhibition (TGI) is greater than 50 µM with SK-MEL-28 melanoma, greater than 50 µM with IGROV1 ovarian, 39.5 µM in the assay with MOLT-4 leukemia and greater than 50 µM in the assay with K-562 leukemia.

For the compound `[N-]=[N+]=NCCCn1c2c(c3ccc([N+](=O)[O-])cc3c1=O)C(=O)c1cc3c(cc1-2)OCO3`, the GI50 is less than 0.0171 µM with SF-539 CNS; 0.379 µM with EKVX NSCLC; 0.109 µM in the assay on NCI-H522 lung; less than 0.01 µM in the assay with CCRF-CEM leukemia; less than 0.01 µM in the assay with CAKI-1 renal; 0.495 µM with UACC-257 melanoma. The GI50 with SK-MEL-28 melanoma was 14.4 µM; in the assay on IGROV1 ovarian, 0.165 µM; in the assay with MOLT-4 leukemia it was less than 0.0374 µM. For the same compound, the TGI is less than 0.0363 µM in the assay on SF-539 CNS; 3.62 µM in the assay on EKVX NSCLC; 0.844 µM in the assay with NCI-H522 lung; 0.0679 µM in the assay with CCRF-CEM leukemia; less than 0.0152 µM in the assay on CAKI-1 renal; 15.2 µM in the assay with UACC-257 melanoma. For the same compound, the concentration for total growth inhibition (TGI) in the assay with SK-MEL-28 melanoma was greater than 100 µM; in the assay on IGROV1 ovarian, 1.46 µM; with K-562 leukemia it was greater than 100 µM.

On to `Cc1cc(C(=O)/C=C/c2ccc[nH]2)ccc1-n1ccc(C(F)(F)F)n1`, for which the GI50 in the assay on SF-539 CNS is 2.69 µM; in the assay with EKVX NSCLC it was 6.15 µM; in the assay on NCI-H522 lung, 3.68 µM; in the assay with CCRF-CEM leukemia, 2.55 µM; in the assay on CAKI-1 renal it was 3.04 µM; in the assay on UACC-257 melanoma, 21.9 µM. For the same compound, the GI50 in the assay on SK-MEL-28 melanoma was 41.8 µM; with IGROV1 ovarian, 2.02 µM; in the assay with MOLT-4 leukemia, 3.66 µM; in the assay on K-562 leukemia, 3.43 µM. Also, the TGI in the assay with SF-539 CNS is 9.13 µM; with EKVX NSCLC it was greater than 100 µM; with NCI-H522 lung, 65.6 µM; in the assay with CCRF-CEM leukemia, greater than 100 µM; in the assay on CAKI-1 renal, 28.7 µM; in the assay on UACC-257 melanoma it was greater than 100 µM. Also, the TGI in the assay with SK-MEL-28 melanoma was greater than 100 µM; with IGROV1 ovarian, 4.56 µM; in the assay with MOLT-4 leukemia, greater than 100 µM; with K-562 leukemia, greater than 100 µM.

For `Cn1c(=O)nc2n(-c3ccc(Cl)cc3)c(-c3ccccc3)c(-c3ccccc3)nc-2c1=O`, the TGI in the assay on SF-539 CNS is 71.5 µM; with EKVX NSCLC, greater than 100 µM; with NCI-H522 lung, greater than 100 µM; in the assay on CCRF-CEM leukemia, 77.1 µM; in the assay on CAKI-1 renal it was greater than 100 µM; in the assay on UACC-257 melanoma, 66.9 µM. In addition, the TGI is 86.2 µM with SK-MEL-28 melanoma, greater than 100 µM in the assay with IGROV1 ovarian, 53.4 µM with MOLT-4 leukemia and greater than 100 µM in the assay with K-562 leukemia.

In the case of `C[C@H]1C/C=C/[C@H]2[C@@H]3O[C@]3(C)[C@@H](C)[C@H]3[C@H](Cc4ccccc4)NC(=O)[C@]32OC(=O)O/C=C/[C@@](C)(O)C1=O`, the GI50 is 0.0125 µM and 0.025 µM with SF-539 CNS; 0.065 µM and 0.121 µM with EKVX NSCLC; 0.0125 µM and 0.025 µM in the assay with NCI-H522 lung; 0.0125 µM and 0.025 µM in the assay with CCRF-CEM leukemia; 0.127 µM and 0.0594 µM in the assay with UACC-257 melanoma; 0.0204 µM and 0.047 µM in the assay on SK-MEL-28 melanoma. For the same compound, the GI50 in the assay with IGROV1 ovarian is 0.0703 µM and 0.0723 µM and 0.025 µM; with MOLT-4 leukemia, 0.289 µM and 0.052 µM; with K-562 leukemia, 0.0125 µM and 0.025 µM. Besides, the TGI is 4.24 µM and 12.3 µM and 39.8 µM in the assay on NCI-H522 lung; 67.7 µM and 84.6 µM and 71.5 µM with CCRF-CEM leukemia; 0.0428 µM in the assay on CAKI-1 renal; 29.9 µM and 24.1 µM and 49.8 µM in the assay with UACC-257 melanoma; > 33.5 µM and 125 µM and > 250 µM in the assay on IGROV1 ovarian; 91.2 µM and 125 µM and > 250 µM with K-562 leukemia.

For the compound `CO[C@@H]1CCN(c2nccc(Nc3cc4c(C(C)C)ccc(N5CC(CS(C)(=O)=O)[C@H]5C)c4cn3)n2)C[C@@H]1F` (some centres not stated), the GI50 in the assay with SF-539 CNS was 5.05 µM; in the assay on EKVX NSCLC it was 1.21 µM; with NCI-H522 lung it was 1.69 µM; with CCRF-CEM leukemia, 4.55 µM; in the assay on CAKI-1 renal, 2.32 µM; with UACC-257 melanoma, 4.91 µM. Further, the GI50 with SK-MEL-28 melanoma was 5.52 µM; in the assay with IGROV1 ovarian, 1.03 µM; with MOLT-4 leukemia, 2.98 µM; with K-562 leukemia, 2.9 µM. The TGI in the assay on SF-539 CNS is 24.3 µM; in the assay on EKVX NSCLC, greater than 100 µM; with NCI-H522 lung, 8.25 µM; with CCRF-CEM leukemia it was greater than 100 µM; with CAKI-1 renal, greater than 100 µM; in the assay on UACC-257 melanoma, 41.1 µM. Also, the total growth inhibition concentration (TGI) with SK-MEL-28 melanoma is greater than 100 µM; in the assay with IGROV1 ovarian, 7.13 µM; in the assay on MOLT-4 leukemia, greater than 100 µM; in the assay on K-562 leukemia, greater than 100 µM.

Regarding `Cc1ccc(S(=O)(=O)N/N=C(\c2nc3ccc([N+](=O)[O-])cc3[nH]c2=O)C(O)c2ccc([N+](=O)[O-])cc2)cc1` (configuration not stated), the concentration for total growth inhibition (TGI) with SF-539 CNS, with EKVX NSCLC, with NCI-H522 lung, with CCRF-CEM leukemia, in the assay on CAKI-1 renal and with UACC-257 melanoma was greater than 100 µM in each case. The concentration for total growth inhibition (TGI) in the assay with SK-MEL-28 melanoma, with IGROV1 ovarian, in the assay with MOLT-4 leukemia and with K-562 leukemia was greater than 100 µM in each case.

With `S=c1o[nH]c(-c2ccccc2)c1C=Nc1ccccc1`, the TGI with SF-539 CNS, in the assay with EKVX NSCLC, in the assay on NCI-H522 lung, with CCRF-CEM leukemia, with CAKI-1 renal and in the assay with UACC-257 melanoma was greater than 100 µM in each case. The TGI with SK-MEL-28 melanoma, in the assay with IGROV1 ovarian, in the assay with MOLT-4 leukemia and with K-562 leukemia was greater than 100 µM in each case.

A word on the GI50: it is the concentration giving 50% growth inhibition. As a reminder, the TGI is the concentration at which net growth stops.
